{
  "source": "patent US20040198663A1",
  "about": "“Method of treating cardiac ischemia by using erythropoietin” (priority 2003, published 2004)",
  "test_system": "hearts from normoxic rabbits",
  "experiment": "Mechanism studies: inhibitors/blockers perfused alone, then with erythropoietin, before global ischemia",
  "design": "species or system New Zealand White rabbit",
  "conditions": "for effect of protein kinase inhibitor on the cardioprotective effect of erythropoietin: inhibitor 15 min alone, then 15 min with erythropoietin 1.0 U/ml prior to ischemia",
  "method": "Resistance to myocardial ischemia. Hearts from infant rabbits were perfused with bicarbonate buffer, and biventricular function was monitored continuously throughout each experiment as described in Rafiee et al., Circulation 106:239-45 (2002). For concentration response studies, hearts were then perfused with erythropoietin (0.5-10.0 U/ml) for 15 minutes prior to 30 minutes ischemia and 35 minutes reperfusion. For mechanism studies with protein kinase inhibitors, potassium channel blockers or nitric oxide synthase inhibitors, hearts were perfused with drugs for 15 minutes alone followed by 15 minutes in combination with erythropoietin prior to ischemia. Hearts perfused with protein kinase inhibitors or potassium channel blockers alone in the absence of erythropoietin for 30 minutes prior to ischemia served as untreated controls for these studies. Recovery of post-ischemic left and right ventricular developed pressure was expressed as a percentage of its pre-drug, pre-ischemic value.\nHearts from normoxic rabbits were perfused with protein kinase inhibitors alone for 15 minutes and then combined with erythropoietin for a further 15 minute period prior to ischemia.\nHearts were perfused with KATP channel blockers alone for 15 minutes and then in combination with erythropoietin (1.0 U/ml) for another 15-minute period prior to ischemia.\nHearts were perfused with Paxilline (1 μM), a blocker of the KCa channel, alone for 15 minutes and then in combination with erythropoietin (1.0 U/ml) for another 15-minute period prior to ischemia.\nHearts from normoxic rabbits were perfused with nitric oxide synthase inhibitors combined with erythropoietin (1.0 U/ml) for 15 minutes prior to ischemia.",
  "note": "“Also recorded” adds a separate entry of the source.",
  "data": [
    {"smiles": "CCCCCC(O)CCCC(=O)O", "note": "(centres unmarked) [5-hydroxydecanoate]", "values": [
      {"measurement": "effect on the cardioprotective effect of erythropoietin", "setting": "5-hydroxydecanoate 300 μM, 15 min alone then 15 min with erythropoietin 1.0 U/ml", "result": "partially"},
      {"measurement": "effect on the cardioprotective effect of erythropoietin", "setting": "5-hydroxydecanoate 300 μM, 15 min alone then 15 min with erythropoietin 1.0 U/ml, listed as 5-HD", "result": "abolished; also recorded: only partially prevented"}
    ]},
    {"smiles": "COc1ccc(Cl)cc1C(=O)NCCc1ccc(S(=O)(=O)NC(=O)NC2CCCCC2)cc1", "note": "[Glibenclamide]", "values": [
      {"measurement": "effect on the cardioprotective effect of erythropoietin", "setting": "glibenclamide 3 μM, 15 min alone then 15 min with erythropoietin 1.0 U/ml", "result": "completely abolished"},
      {"measurement": "effect on the cardioprotective effect of erythropoietin", "setting": "glibenclamide 3 μM, 15 min alone then 15 min with erythropoietin 1.0 U/ml, listed as glibenclamide", "result": "abolished; also recorded: completely prevented"}
    ]},
    {"smiles": "CNC(=S)NS(=O)(=O)c1cc(CCNC(=O)c2cc(Cl)ccc2OC)ccc1OC", "note": "[HMR 1098]", "values": [
      {"measurement": "effect on the cardioprotective effect of erythropoietin", "setting": "HMR 1098 30 μM, 15 min alone then 15 min with erythropoietin 1.0 U/ml", "result": "abolished; also recorded: completely prevented; also recorded: completely blocked"}
    ]},
    {"smiles": "COC(=O)[C@@H](N)CCCNC(=N)N[N+](=O)[O-]", "note": "[L-NAME]", "values": [
      {"measurement": "effect on the cardioprotective effect of erythropoietin", "setting": "L-NAME 200 μM combined with erythropoietin 1.0 U/ml for 15 minutes", "result": "did not block"}
    ]},
    {"smiles": "CNC(=N)NCCC[C@H](N)C(=O)O", "note": "[L-NMA]", "values": [
      {"measurement": "effect on the cardioprotective effect of erythropoietin", "setting": "L-NMA 100 μM combined with erythropoietin 1.0 U/ml for 15 minutes", "result": "did not block"}
    ]},
    {"smiles": "COc1cccc(-c2cc(=O)c3ccccc3o2)c1N", "note": "[PD98059]", "values": [
      {"measurement": "effect of protein kinase inhibitor on the cardioprotective effect of erythropoietin", "result": "abolished"}
    ]},
    {"smiles": "CC(C)(O)[C@H]1O[C@H]2CC[C@@]3(C)[C@@](O)(CC[C@H]4Cc5c([nH]c6ccccc56)[C@@]43C)C2=CC1=O", "note": "[Paxilline]", "values": [
      {"measurement": "effect on untreated hearts", "setting": "Paxilline 1 μM alone, no erythropoietin", "result": "no effect"}
    ]},
    {"smiles": "C[S+]([O-])c1ccc(-c2nc(-c3ccncc3)c(-c3ccc(F)cc3)[nH]2)cc1", "note": "(centres unmarked) [SB203580]", "values": [
      {"measurement": "effect of protein kinase inhibitor on the cardioprotective effect of erythropoietin", "result": "abolished"}
    ]},
    {"smiles": "COc1ccc2c(c[n+](C)c3c4cc5c(cc4ccc23)OCO5)c1OC", "note": "[chelerythrine]", "values": [
      {"measurement": "effect of protein kinase inhibitor on the cardioprotective effect of erythropoietin", "result": "abolished"}
    ]}
  ]
}
